In assay [1] the test system is GTFB expression in the wild-type S. mutans. Briefly: Western blot of GTFB expression after addition of CSP to cultures. To be noted: CSP added to fresh cultures at the time of dilution, 1 to 8 mcg/mL, FIG. 6 panel 1. In kind it is cell-based. The protocol: (§1) For the Western blotting, the bacteria were incubated to the desired optical density, subjected to the freeze-thaw cycle and mixed with the sample loading buffer. The samples were heated at 100° C. for 15 minutes and subjected to the PAGE. The number of cells per lane of the gel was kept constant at 10^8 cells. The western blotting was performed in accordance with a standard procedure (Sambrook, J. and Russel D. W. Molecular Cloning, a laboratory manual, 3rd ed. Cold Spring Harbor Laboratory Press, NY, 2001). Briefly, after PAGE the samples were transferred onto the nitrocellulose membrane and the latter subjected to the standard ELISA procedure. The anti-GTFB mouse monoclonal antibody was previously characterized (Fukushima, K., Okada, T., Ochiai, K., Infection and Immunity 61:323–328 (1993), incorporated herein by reference). The secondary antibody (HRP-linked goat anti-mouse) and the detection reagents were purchased from Cell Signaling Technology (Beverly, Mass.).
(§2) Synthetic CSP was dissolved in water to the concentration of 1 mg/mL as described in Li, Y-H et al., J. of Bact., 183:897–908 (2001). […]
(§3) A Western blot analysis was performed to determine the effect of CSP on the level of GTFB expression. […] As a control, the same blot was analyzed with antibody specific to FTF, where it was observed that CSP has no effect on FTF expression (FIG. 6, panel 2).

Assay [2] deals with FTF expression. Briefly: Western blot control with antibody specific to FTF. The assay is classed as cell-based, S. mutans. Conditions: same blot analyzed with antibody specific to FTF; FIG. 6 panel 2. The protocol: as §1, §2, §3
Assay [3] relates to gtfB gene of S. mutans. Briefly: Transcriptional fusion assay (gtfB promoter-luciferase, luminescence). The assay is classed as cell-based. To be noted: increasing concentrations of CSP, 10 minutes incubation at peak expression (end of lag phase); FIG. 7.
Excerpt: The fusion constructs and the transcription assay were previously described (Goodman, S. D. and Gao, Q., Plasmid 43:85–98 (2000)). Briefly, the constructs comprised the upstream regions of the gtfB and gtfC genes fused to the promoterless coding sequence of the firefly luciferase gene and inserted into the plasmid vector pVA838, a shuttle plasmid capable of propagating in both E. coli and S. mutans marked with erythromycin resistance. The plasmids were introduced into S. mutans GS5 by electroporation and the resulting erythromycin resistant strains were grown in liquid cultures and collected at various optical densities. The reporter gene (luciferase) expression was detected by measuring luminescence upon the addition of luciferin (the substrate for luciferase), see Goodman, S. D. and Gao Q. Plasmid 42:154–157 (1999), incorporated herein by reference.
as §2
The transcriptional fusion assay was performed to determine whether CSP inhibits the expression of the gtfB gene of S. mutans. […] When the expression peaked at the end of the lag phase prior to the exponential growth, the cells were challenged with increasing concentrations of CSP for an incubation period of 10 minutes and assessed for luminescence, the measure of reporter gene expression. […]

Assay [4] relates to S. mutans. The experiment in a line: In vitro attachment assay to a smooth surface (Petri dish) with sucrose. To be noted: CSP at 8 μg/mL for 10 minutes prior to hour-long incubation on Petri dishes with sucrose; up to 51% without CSP; FIG. 8. The assay is classed as cell-based. The protocol:
The bacteria were grown in liquid cultures to the desired optical density. 20 ml of the cultures were then transferred into Petri dishes and sucrose added to the final concentration of 2%. The incubation was resumed for one hour, after which the liquid fraction was withdrawn and the fresh medium was added into which the layer of attached cells was scraped. The percentage of the attached bacteria was determined as the ratio of the optical densities of the attached to the total (a sum of attached and unattached) bacteria.
Synthetic CSP was dissolved in water to the concentration of 1 mg/mL as described in Li, Y-H et al., J. of Bact., 183:897–908 (2001). The cultures were grown in Todd Hewitt Broth (THB) supplemented with 5% horse serum. CSP was added to the cultures at the time of diluting the overnight culture (time zero of the culture growth) to a designated concentration between 1 and 8 mcg/mL. The incubation then continued up to the optical density where the expression of GTF is maximal (OD 650=0.1). The cultures where then collected and used in Western blotting with anti-glucosyltransferase (gtf) antibody. […]
An in vitro assay was performed to determine whether CSP can inhibit the attachment of S. mutans to a smooth surface. When sucrose was added to the medium, the wild-type S. mutans readily attached to the surface of a Petri dish. […]

Turning to “CSP: natural peptide produced and secreted by S. mutans that acts as an autoinducer; sequence SEQ ID NO: 1 (FIG. 1); synthetic CSP was used (SGSLSTFFRLFNRSFTQALGK; Streptococcus mutans)”, the “peak expression of GTFB (Western blot)” value in assay [1] is reported as “lowered proportionally to the amount of peptide added”. For the same substance, the “effect on FTF expression (Western blot)” value in assay [2] is given as “no effect”. For the same substance, the “repression of gtfB reporter gene expression (luminescence)” value in assay [3] is on record as “increasing concentrations of CSP increased the magnitude of repression”. For the same substance, the “bacterial cells localized to the attached layer” value in assay [4] is given as “less than 8%”.

Values taken from patent US7087228B2, “Preventing tooth decay and infective endocarditis using natural oligopeptides” (University of Southern California, priority 2002, dated 2006).
